Where “and” joins values, the source holds several entries; their conditions need not be identical. Equal values may be shown once. Read-outs that look alike come from different tables or passages of the source.
Legend:
Aβ1-42 = molecular target: T1, Aβ1-42 (Homo sapiens, UniProt P05067); assay: biochemical; conditions: ± SEM; 50 μmol/L Aβ, 30°C, 24 h, ThT; highest tested concentration 50 μmol/L; read-out: IC50 Aβ1-42 self-aggregation
T1 construct: 1,1,1,3,3,3-hexafluoro-2-propanol pretreated Aβ1-42 samples (Bachem AG, Switzerland); purchased Bachem AG, Switzerland
T1 sequence (P05067 672-713 limits assumed): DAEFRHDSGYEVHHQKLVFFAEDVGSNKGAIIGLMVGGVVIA

[1] = tested on: hAChE-induced amyloid aggregation; set-up: method as in Piazzi et al. [2003], [2007]; conditions: at 100 μmol/L concentration; ref Piazzi et al. [2003], [2007]; cited from earlier work
BACE1 [2] = molecular target: T2, BACE1 (Homo sapiens, UniProt P56817); conditions: cited from earlier work
T2 sequence (P56817 46-501): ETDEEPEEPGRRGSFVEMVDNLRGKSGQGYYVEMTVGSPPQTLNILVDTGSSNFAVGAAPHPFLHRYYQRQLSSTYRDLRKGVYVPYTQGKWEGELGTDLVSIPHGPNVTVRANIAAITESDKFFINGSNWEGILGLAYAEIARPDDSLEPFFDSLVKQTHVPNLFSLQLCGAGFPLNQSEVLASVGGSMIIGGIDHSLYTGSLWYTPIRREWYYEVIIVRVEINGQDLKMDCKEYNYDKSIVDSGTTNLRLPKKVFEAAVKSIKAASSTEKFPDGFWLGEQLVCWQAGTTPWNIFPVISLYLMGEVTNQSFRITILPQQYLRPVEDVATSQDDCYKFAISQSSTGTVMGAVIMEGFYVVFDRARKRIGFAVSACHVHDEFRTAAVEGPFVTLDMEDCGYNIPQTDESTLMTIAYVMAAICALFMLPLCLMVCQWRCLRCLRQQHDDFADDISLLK

SH-SY5Y cells [3] = assay: Aβ25-35 peptide-induced cytotoxicity, MTT assay, SH-SY5Y cells; conditions: 1–30 μmol/L, Aβ25-35 5 μmol/L, 3 h
THP-1 cells [4] = assay: Aβ1-42 oligomer-induced cytotoxicity, MTT assay, THP-1 cells; format: cell-based; conditions: Homo sapiens, read-out: IC50 Aβ1-42 oligomer toxicity THP-1 cells
SH-SY5Y cells [5] = assay: Aβ1-42 oligomer-induced cytotoxicity, MTT assay, SH-SY5Y cells; format: cell-based; conditions: Homo sapiens; for IC50: 3 h, read-out: IC50 Aβ1-42 oligomer toxicity SH-SY5Y cells; for inhibition at 30 µM: read-out: toxicity inhibition
SH-SY5Y cells [6] = assay: Aβ1-42 oligomer binding to the cell surface (Congo red assay), SH-SY5Y cells; format: cell-based, human; conditions: compound 30 μmol/L, Aβ1-42 oligomers 5 μmol/L, 30 min cotreatment
Method: (§1) SH-SY5Y and THP-1 cells were seeded in 96-well plates at 5 × 10^3 cells/well and 5 × 10^4 cells/well, respectively, for 24 h. At the end of incubation, the medium was changed with a fresh one with Aβ1-42 oligomer (5 μmol/L) and various compounds at 30 μmol/L for 30 min and then washed twice with PBS. The residual Aβ1-42 oligomer cell complex was stained with 1 μmol/L of Congo red (CR) in PBS for 20 min and measured with a spectrophotometer (TECAN®, GENios) at 540 nm (bound CR). CR values are reported as percent increases in treated cells versus untreated cells.

[7] = molecular target: T3, BuChE derived from human serum (Homo sapiens, UniProt P06276); assay: biochemical; format: biochemical; conditions: ± SEM; 20 min preincubation at 37°C, pH 8.0; read-out: IC50 hBuChE
T3 construct: BuChE derived from human serum (Sigma Chemical, Milan, Italy); purchased Sigma Chemical, Milan, Italy; host or cells: human serum
T3 sequence (P06276 29-602): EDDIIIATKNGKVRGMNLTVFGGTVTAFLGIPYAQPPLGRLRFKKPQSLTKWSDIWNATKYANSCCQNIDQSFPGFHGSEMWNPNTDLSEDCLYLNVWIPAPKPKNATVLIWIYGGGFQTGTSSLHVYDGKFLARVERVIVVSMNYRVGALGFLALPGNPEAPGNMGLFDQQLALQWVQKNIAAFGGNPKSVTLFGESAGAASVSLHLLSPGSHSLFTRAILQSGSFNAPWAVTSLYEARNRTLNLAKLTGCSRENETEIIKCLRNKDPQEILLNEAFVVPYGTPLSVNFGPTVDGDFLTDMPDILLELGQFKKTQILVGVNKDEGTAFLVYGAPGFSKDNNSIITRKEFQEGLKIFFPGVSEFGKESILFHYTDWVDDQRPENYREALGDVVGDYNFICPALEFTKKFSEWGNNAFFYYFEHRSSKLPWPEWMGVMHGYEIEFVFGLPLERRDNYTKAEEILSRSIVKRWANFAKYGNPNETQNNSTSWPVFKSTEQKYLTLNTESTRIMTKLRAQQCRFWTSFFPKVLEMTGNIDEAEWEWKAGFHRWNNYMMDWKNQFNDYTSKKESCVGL

BACE1 [8] = molecular target: T2, BACE1; assay: Inhibition of BACE1 (FRET assay); format: biochemical; conditions: ± SEM, Panvera peptide substrate, pH 4.5
THP-1 cells [9] = assay: Aβ1-42 oligomer binding to the cell surface (Congo red assay), THP-1 cells; format: cell-based, human; conditions: compound 30 μmol/L, Aβ1-42 oligomers 5 μmol/L, 30 min cotreatment
Method: as §1

SH-SY5Y cells [10] = assay: Total antioxidant activity in membrane and cytosolic fractions (ABTS decolorization); format: cell-based, human; conditions: SH-SY5Y treated 2 h, vs untreated cells
human recombinant AChE = human recombinant AChE (Homo sapiens, UniProt P22303); assay: biochemical; conditions: ± SEM; 20 min preincubation at 37°C, pH 8.0; read-out: IC50 hAChE
Sequence of human recombinant AChE (P22303 32-614): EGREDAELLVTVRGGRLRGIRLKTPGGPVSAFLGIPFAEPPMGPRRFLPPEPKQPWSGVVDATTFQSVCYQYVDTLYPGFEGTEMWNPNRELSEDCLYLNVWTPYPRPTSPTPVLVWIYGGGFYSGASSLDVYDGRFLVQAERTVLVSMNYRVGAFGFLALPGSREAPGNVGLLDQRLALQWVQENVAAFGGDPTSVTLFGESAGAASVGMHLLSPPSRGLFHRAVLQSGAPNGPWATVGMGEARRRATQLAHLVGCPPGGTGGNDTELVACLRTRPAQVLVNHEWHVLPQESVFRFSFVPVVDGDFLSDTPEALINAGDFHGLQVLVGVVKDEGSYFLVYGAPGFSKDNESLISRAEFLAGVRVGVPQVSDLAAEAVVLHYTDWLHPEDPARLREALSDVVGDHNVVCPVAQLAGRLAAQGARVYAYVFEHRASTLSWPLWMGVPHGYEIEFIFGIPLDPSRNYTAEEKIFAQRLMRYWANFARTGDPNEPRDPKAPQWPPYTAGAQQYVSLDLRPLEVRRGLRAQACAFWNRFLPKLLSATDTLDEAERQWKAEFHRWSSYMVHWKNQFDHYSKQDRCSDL

THP-1 cells [11] = assay: Aβ-induced toxicity (Aβ1-42 oligomers, Aβ25-35), MTT assay, THP-1 cells; format: cell-based, human; conditions: 1–30 μmol/L, Aβ 5 μmol/L, 3 h
SH-SY5Y cells [12] = assay: Aβ1-42 oligomer-induced intracellular ROS formation (DCFH-DA, DHE); format: cell-based, human; conditions: 3–30 μmol/L, 3 h pretreatment, Aβ1-42 oligomers 5 μmol/L
Method: The intracellular hydrogen peroxide and superoxide anion formation induced by Aβ1-42 oligomer at SH-SY5Y cell level was determined using, respectively, the probe 2′,7′-dichlorodihydrofluorescein diacetate (DCFH-DA, λexc = 485 nm, λem = 535 nm), and dihydroethidium (DHE, λexc = 380 nm, λem = 445 nm). SH-SY5Y cells were cultured in BD Falcon™ 8-well Culture slides (surface area 0.7 cm^2/well) at 1 × 10^4 cells/well for 24 h. The cells were then treated for 3 h with various concentrations of compounds (3–30 μmol/L) at 37°C prior to the treatment of 3 h with Aβ1-42 oligomer (5 μmol/L). At the end of treatment, the cells were washed and incubated with DCFH-DA (5 μmol/L) or DHE (10 μmol/L) for 30 min in the dark. After removal of the probes, cells were washed with PBS and incubated with DMEM serum free for 1 h at 37°C. Intracellular ROS formation was measured under a fluorescence microscope (Zeiss Axio Imager M1). Fluorescence images were captured with an AxioVision image recording system computer. Four randomly selected areas with 50–100 cells in each were analyzed and the values obtained are expressed as fold increases in hydrogen peroxide and superoxide anion versus untreated cells.

SH-SY5Y cells [13] = assay: t-BuOOH-induced intracellular ROS formation (DCFH-DA, DHE); format: cell-based, human; conditions: 3–30 μmol/L, 3 h pretreatment, t-BuOOH 50 μmol/L
Method: As above, the intracellular hydrogen peroxide and superoxide anion formation induced by tert-butyl hydroperoxide (t-BuOOH) at SH-SY5Y cell level was determined using, respectively, the probes DCFH-DA and DHE. Briefly, SH-SY5Y cells were cultured in 96-well microtiter plates at 3 × 10^4 cells/well for 24 h. The medium was then removed and the cells were treated for 3 h with various concentrations of compounds (3–30 μmol/L) at 37°C. After treatment, the cells were washed with PBS and then incubated with DCFH-DA (5 μmol/L) or DHE (10 μmol/L) in PBS at 37°C in 5% CO2 for 30 min. After removal of the probes and further washing, the cells were incubated with t-BuOOH (50 μmol/L) in PBS for 30 min. At the end of incubation, the green or red fluorescence of the cells from each well was measured with a spectrofluorometer (TECAN®, GENios). The results are expressed as fold increases in intracellular ROS evoked by exposure to t-BuOOH.

THP-1 cells [14] = assay: Aβ1-42 oligomer-induced NO and TNFα release; format: cell-based, human; conditions: 30 μmol/L
Method: THP-1 cells were seeded in 96-well plates at 5 × 10^4 cells/well for 24 h. At the end of incubation, the medium was changed with a fresh one with AP2469 30 μmol/L for 3 h. The cells were then washed with PBS and incubated for a further 12 h with Aβ1-42 oligomer (5 μmol/L). The content of each well was then removed and centrifuged at 2500g for 10 min, and the supernatant was frozen at −20°C for the subsequent analysis of released NO and tumor necrosis factor alpha (TNFα). To determine the NO levels, 100 μL of supernatant was incubated with 100 μL of Griess reagent (Sigma Aldrich) in the dark at room temperature for 15 min. The intensity of the color that developed was then measured at 540 nm using a spectrophotometer (TECAN®, GENios). Values are reported as percent increases in treated cells versus untreated cells. The TNFα levels in 100 μL of supernatant were determined by Ray Bio® ELISA kit according to the manufacturer's instructions (Ray Biotech, Inc., GA). The concentration of TNFα levels was calculated from a TNFα standard curve standard of 25–6000 pg/mL and the values are reported as percent increases in treated cells versus untreated cells.

[15] = THP-1, ± SEM, 5 μmol/L Aβ1-42 oligomers, 3 h, MTT, highest tested concentration 30 μmol/L
[16] = SH-SY5Y, ± SEM, 5 μmol/L Aβ1-42 oligomers, MTT, highest tested concentration 30 μmol/L

Structure (SMILES) | IC50 (Aβ1-42) | inhibition of hAChE-induced amyloid aggregation [1] | cytotoxicity elicited by Aβ25-35 peptide in SH-SY5Y cells (SH-SY5Y cells [3]) | binding of Aβ1-42 oligomers with SH-SY5Y cells (CR assay) (SH-SY5Y cells [6]) | IC50 [7] | IC50 (THP-1 cells [4]; [15]) | IC50 (SH-SY5Y cells [5]; [16]) | IC50 (BACE1 [8]) | binding of Aβ1-42 oligomers with THP-1 cells (CR assay) (THP-1 cells [9]) | other results
COc1cc2cc(-c3ccc(CN(C)Cc4ccccc4)cc3)c(=O)oc2cc1OC [AP2238, 3-(4-{[Benzyl(methyl)amino]methyl}-phenyl)-6,7-dimethoxy-2H-2-chromenone] | > 50 µM | 35% | – | – | – | – | – | – | – | –
c1ccc2c(NCCCCCCCNc3c4c(nc5ccccc35)CCCC4)c3c(nc2c1)CCCC3 [bis(7)-tacrine] | – | – | – | – | – | – | – | – | – | IC50 (BACE1 [2]; noncompetitive BACE1 inhibitor, ref Fu et al. [2008], read-out: BACE1 inhibitory activity): 7.5 µM
COc1ccc2c3c1O[C@H]1C[C@@H](O)C=C[C@@]31CCN(C)C2 [Galantamine, reference compound] | > 50 µM | – | dose-dependent decrease | – | – | – | – | – | – | IC50 (BACE1 [2]; not active at the highest tested concentration (5 μmol/L), ref Mancini et al. [2007], read-out: IC50 BACE1): > 5 µM; IC50 (THP-1 cells [4]; THP-1, 3 h): > 30 µM; IC50 (SH-SY5Y cells [5]; SH-SY5Y): 7.99 ± 0.91 µM; inhibition at 30 µM (SH-SY5Y cells [5]; SH-SY5Y): 58%
CCN(Cc1ccccc1)Cc1ccc(-c2cc3cc(OC)c(OC)cc3oc2=O)cc1 [AP2243] | > 50 µM | 38% | – | did not modify | 118 ± 16 µM | > 30 µM | > 30 µM | 0.24 ± 0.03 µM | did not modify | –
CCN(Cc1ccccc1)Cc1ccc(-c2cc3cc(O)c(O)cc3oc2=O)cc1 [AP2469, 3-{4-[(Benzylethylamino)-methyl]phenyl}-6,7-dihydroxychromen-2-one] | 21.7 ± 3.4 µM | – | dose-dependent decrease | significantly reduced | 124 ± 13 µM | 8.18 ± 0.51 µM | 7.5 ± 0.72 µM | 6.5 µM and 6.49 µM | significantly reduced | total antioxidant activity (TAA), membrane fraction (SH-SY5Y cells [10]; 3–30 μmol/L): significant only at the highest tested concentration; total antioxidant activity (TAA), cytosolic fraction (SH-SY5Y cells [10]; all tested concentrations (3–30 μmol/L)): significant TAA increase; IC50 (human recombinant AChE): 8.6 ± 0.21 µM; Aβ-induced toxicity in THP-1 cells (THP-1 cells [11]): significant inhibitor effects; Aβ1-42 oligomer-induced hydrogen peroxide and superoxide anion formation (SH-SY5Y cells [12]): significantly inhibited; ROS formation induced by t-BuOOH (SH-SY5Y cells [13]): significantly reduced; inhibition at 30 µM (SH-SY5Y cells [5]; at 30 μmol/L, Aβ1-42 oligomers 5 μmol/L, SH-SY5Y cells): 93%; Aβ1-42 oligomer-induced TNFα release (THP-1 cells [14]; ELISA): inhibited; Aβ1-42 oligomer-induced NO release (THP-1 cells [14]; Griess reagent): reduced

— PMC4184701 (Pharmacology Research & Perspectives, 2014)
